Results: US20220323372A1, “COMPOSITION FOR IMPROVING LIVER FUNCTION” (NITTO FUJI FLOUR MILLING CO., LTD., priority 2019, published 2022)

Key:
[1] = system: Non-alcoholic steatohepatitis model mice (C57BL/6NASH mice); assay: AST value in plasma (Test Example 3); assay type: in vivo; settings: group R: feed with 0.4 mass % of resveratrol; week 0 to week 4; vs control group
Source text: (§1) Non-alcoholic steatohepatitis model mice (Japan Charles River Co., Ltd., C57BL/6NASH mice, male) were purchased at the age of six weeks, acclimated for two days, and reared six per cage. The mice were reared in a constant temperature/constant humidity room maintained on a 12-hour light-dark cycle (light: 8 a.m. to 8 p.m.). After the acclimation phase, the feeds shown below were fed ad libitum in accordance with the test group. • Control group (group C): control feed not blended with test substance • Resveratrol group (group R): feed blended with 0.4 mass % of resveratrol (Tokyo Chemical Industry Co., Ltd.) • ARs high dose group (group AH): feed blended with 0.9 mass % of ARs • ARs low dose group (group AL): feed blended with 0.3 mass % of ARs The body weight was measured once a day during the test phase. Blood samples were also drawn once a week. Blood was drawn from the caudal vein of the mice, and plasma was obtained. The plasma was stored at −80° C. until being used in measurement. Also, after the body weight was measured on the final day of the test, blood was drawn under anesthesia by diethyl ether. The liver was removed immediately after sacrifice, weighed, and frozen by dry ice. […] The aspartate aminotransferase (AST) value and alanine aminotransferase (ALT) value in the plasma, which are general indicators of liver function, were measured. […]

[2] = system: intracellular mitochondria number of liver tissue; assay: Intracellular mitochondria number of liver tissue, weight ratio of mitochondrial DNA to genomic DNA (Test Example 8); assay type: in vivo, mice; settings: group R: feed with 0.4 mass % of resveratrol; vs control group
Experimental: In this test example, the intracellular mitochondria number of the liver tissue was examined. Specifically, the intracellular mitochondria number of the liver tissue was evaluated by comparing the weight ratio of mitochondrial DNA to genomic DNA, measured by quantitative PCR as follows. DNA was extracted from liver tissue using a “NucleoSpin (registered trademark) Tissue kit (manufactured by Takara Bio Inc.)” according to the company's instructions. Each DNA copy number was quantified using a “Mouse Feeder Cell Quantification Kit (manufactured by Takara Bio Inc.)” according to the company's instructions. Primers having the following sequences were used. The PCR reaction was carried out under the following conditions. (95° C.,30 seconds→95° C.,5 seconds→60° C.,30 seconds)×40 cycles→95° C.,60 seconds For the weight ratio of measured mitochondrial DNA to genomic DNA, the relative values of each group were compared, taking the control group (group C) as 100%.

[3] = system: Non-alcoholic steatohepatitis model mice (C57BL/6NASH mice); assay: Pathology evaluation of liver tissue by HE stain (Test Example 5); assay type: in vivo; settings: group R: feed with 0.4 mass % of resveratrol; vs control group
Source text: Non-alcoholic steatohepatitis model mice (Japan Charles River Co., Ltd., C57BL/6NASH mice, male) were purchased at the age of six weeks, acclimated for two days, and reared six per cage. The mice were reared in a constant temperature/constant humidity room maintained on a 12-hour light-dark cycle (light: 8 a.m. to 8 p.m.). After the acclimation phase, the feeds shown below were fed ad libitum in accordance with the test group. • Control group (group C): control feed not blended with test substance • Resveratrol group (group R): feed blended with 0.4 mass % of resveratrol (Tokyo Chemical Industry Co., Ltd.) • ARs high dose group (group AH): feed blended with 0.9 mass % of ARs • ARs low dose group (group AL): feed blended with 0.3 mass % of ARs The body weight was measured once a day during the test phase. Blood samples were also drawn once a week. Blood was drawn from the caudal vein of the mice, and plasma was obtained. The plasma was stored at −80° C. until being used in measurement. Also, after the body weight was measured on the final day of the test, blood was drawn under anesthesia by diethyl ether. The liver was removed immediately after sacrifice, weighed, and frozen by dry ice. The liver was divided into halves, and each was placed in a 1.5 mL tube and frozen at −80° C. Frozen liver tissue was embedded in paraffin and sliced. […]

[4] = system: Non-alcoholic steatohepatitis model mice (C57BL/6NASH mice); assay: Triglyceride level in liver tissue (Test Example 4); assay type: in vivo; settings: group R: feed with 0.4 mass % of resveratrol; control group 130 mg/g
Source text: Non-alcoholic steatohepatitis model mice (Japan Charles River Co., Ltd., C57BL/6NASH mice, male) were purchased at the age of six weeks, acclimated for two days, and reared six per cage. The mice were reared in a constant temperature/constant humidity room maintained on a 12-hour light-dark cycle (light: 8 a.m. to 8 p.m.). After the acclimation phase, the feeds shown below were fed ad libitum in accordance with the test group. • Control group (group C): control feed not blended with test substance • Resveratrol group (group R): feed blended with 0.4 mass % of resveratrol (Tokyo Chemical Industry Co., Ltd.) • ARs high dose group (group AH): feed blended with 0.9 mass % of ARs • ARs low dose group (group AL): feed blended with 0.3 mass % of ARs The body weight was measured once a day during the test phase. Blood samples were also drawn once a week. Blood was drawn from the caudal vein of the mice, and plasma was obtained. The plasma was stored at −80° C. until being used in measurement. Also, after the body weight was measured on the final day of the test, blood was drawn under anesthesia by diethyl ether. The liver was removed immediately after sacrifice, weighed, and frozen by dry ice. […] A quantity of 0.5 mL of normal saline was added to the recovered supernatant and mixed for several seconds. […] The resultant mixture served as a sample, and the triglyceride level was measured. […]

[5] = system: Non-alcoholic steatohepatitis model mice (C57BL/6NASH mice); assay: Weight gain in hepatitis model mice (Test Example 2); assay type: in vivo; settings: Resveratrol group (group R): feed blended with 0.4 mass % of resveratrol, ad libitum
[6] = system: Non-alcoholic steatohepatitis model mice (C57BL/6NASH mice); assay: ALT value in plasma (Test Example 3); assay type: in vivo; settings: group R: feed with 0.4 mass % of resveratrol; week 0 to week 4; vs control group
Source text: as §1

Structure (SMILES): Oc1ccc(C=Cc2cc(O)cc(O)c2)cc1 [resveratrol]
- changes in AST value in plasma [1]: the changes were almost the same as the control group
- intracellular mitochondria number of liver tissue (weight ratio of mitochondrial DNA to genomic DNA) [2]: no changes in intracellular mitochondria number were seen
- blank spaces derived from fat droplets in HE stained liver tissue [3]: virtually no effect was seen
- triglyceride level in liver tissue [4]: could not be corrected
- weight gain during the test phase [5]: weight gain suppression in the hepatitis model mice could not be improved
- changes in ALT value in plasma [6]: the changes were almost the same as the control group
